In patent US8198311B2, “Modulators of glucocorticoid receptor, AP-1, and/or NF-κB activity and use thereof” (Bristol-Myers Squibb Company, priority 2006, dated 2012):
Like-named read-outs stand apart in the source and are kept apart here.

What was measured:
[1] = target: T1, human full-length glucocorticoid receptor (Homo sapiens, UniProt P04150); experiment: Glucocorticoid Receptor Binding Assay (II), fluorescence polarization competitor kit (Fluormone GS1); settings: cell lysate with recombinant human full-length GR
T1 construct: recombinantly expressed human full-length glucocorticoid receptor; purchased PanVera Co., Madison, Wis; P2816
T1 sequence (P04150 1-777): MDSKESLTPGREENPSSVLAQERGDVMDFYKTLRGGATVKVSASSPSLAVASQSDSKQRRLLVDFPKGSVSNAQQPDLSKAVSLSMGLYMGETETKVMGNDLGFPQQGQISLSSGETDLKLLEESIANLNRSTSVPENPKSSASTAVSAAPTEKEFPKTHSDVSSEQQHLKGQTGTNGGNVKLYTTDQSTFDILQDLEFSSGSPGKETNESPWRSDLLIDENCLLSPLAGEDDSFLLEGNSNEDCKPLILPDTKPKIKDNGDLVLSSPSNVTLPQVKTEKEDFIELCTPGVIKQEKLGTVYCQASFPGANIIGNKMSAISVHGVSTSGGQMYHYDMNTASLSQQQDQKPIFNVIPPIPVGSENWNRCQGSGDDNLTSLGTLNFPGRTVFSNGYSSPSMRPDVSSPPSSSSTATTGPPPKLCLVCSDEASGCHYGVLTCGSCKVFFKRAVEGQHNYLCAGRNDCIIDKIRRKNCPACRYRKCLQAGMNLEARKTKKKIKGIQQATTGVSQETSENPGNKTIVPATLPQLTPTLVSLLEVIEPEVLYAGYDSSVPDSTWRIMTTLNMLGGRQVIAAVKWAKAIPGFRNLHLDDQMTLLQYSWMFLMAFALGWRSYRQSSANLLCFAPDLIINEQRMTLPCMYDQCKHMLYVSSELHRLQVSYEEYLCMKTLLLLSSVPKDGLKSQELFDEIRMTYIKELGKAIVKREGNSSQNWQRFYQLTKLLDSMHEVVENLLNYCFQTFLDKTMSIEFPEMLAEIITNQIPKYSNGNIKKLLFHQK
Procedure: In order to measure the binding of compounds on the glucocorticoid receptor a commercially available kit was used (Glucocorticoid receptor competitor assay kit, PanVera Co., Madison, Wis., P2816). Briefly, a cell lysate containing recombinantly expressed human full-length glucocorticoid receptor was mixed with a fluorescently labeled glucocorticoid (1 nM Fluormone GS1) in the presence or absence of test compound. After one hour at room temperature, the fluorescence polarization (FP) of the samples were measured. […] Test molecules were analyzed in the concentration range from 2.4 nM to 40 microMolar.

[2] = test system: AP-1 induced transcriptional activity; experiment: Cellular Transrepressional Assay (AP-1 luciferase reporter in A549 cells, PMA-activated); assay type: cell-based; settings: pAP-1-Luc, 10 ng/ml PMA, read-out: AP-1 (EC50, nM) (Cellular Transrepression Assay)
In short: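 A549 cells stably carrying a 7×AP-1-luciferase reporter, stimulated with 10 ng/ml PMA with or without compound (0.1 nM-40 μM) for 7 h. Luciferase luminescence read 10 min after reagent addition; repression is percentage decrease of PMA-alone signal, EC50 by curve fitting.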

[3] = target: T2, human glucocorticoid receptor (Homo sapiens, UniProt P04150); experiment: Glucocorticoid Receptor Binding Assay (I), fluorescence polarization competitor kit (Fluormone GS Red); settings: purified human recombinant full-length GR
T2 construct: purified human recombinant full-length glucocorticoid receptor (2 nM); purchased Invitrogen Part # 2893
T2 sequence (P04150 1-777): T1 sequence (P04150 1-777)
In short: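 Fluorescence polarization competition: full-length recombinant human GR (2 nM) incubated with 1 nM Fluormone GS Red plus test compound (8.5E-05 to 5 μM) for 2 h at room temperature in the dark before FP read-out.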

Compound Cn1ncc2cc([C@H](c3ccccc3)C(C)(C)CNS(=O)(=O)CC(F)(F)F)ccc21 [Example 85, (S)—N-(2,2-Dimethyl-3-(1-methyl-1H-indazol-5-yl)-3-phenylpropyl)-2,2,2-trifluoroethanesulfonamide] has a Ki [1] of 2890 nM and an EC50 ([2]; Homo sapiens, A549, 7 h) greater than 10000 nM.

CC(C)CC(c1ccc2c(cnn2-c2ccc(F)cc2)c1)C(C)(C)CNC(=O)CC(F)(F)F (single isomer, unassigned) [Example 59B, 3,3,3-trifluoro-N-(3-(1-(4-fluorophenyl)-1H-indazol-5-yl)-2,2,5-trimethylhexyl)propanamide] was tested, and the Ki [1] was 9.3 nM and the EC50 ([2]; Homo sapiens, A549, 7 h) was greater than 10000 nM.

CC(C)(C(O)c1ccccc1)C(c1ccccc1)c1ccc2c(cnn2-c2ccc(F)cc2)c1 (stereo not shown) [Example 121, 3-(1-(4-fluorophenyl)-1H-indazol-5-yl)-2,2-dimethyl-1,3-diphenylprop an-1-ol] was tested, and the Ki [1] was 69 nM and the EC50 ([2]; Homo sapiens, A549, 7 h) was 3850 nM.

CC(=O)C(C)(C)C(c1ccccc1)c1ccc2c(cnn2-c2ccc(F)cc2)c1 (stereo not shown) [Example 120, 4-(1-(4-Fluorophenyl)-1H-indazol-5-yl)-3,3-dimethyl-4-phenylbutan-2-one] showed a Ki [1] of 21 nM and an EC50 ([2]; Homo sapiens, A549, 7 h) greater than 10000 nM.

Work on CC(C)(C)CC(=O)NCC(C)(C)[C@@H](c1ccccc1)c1ccc2c(cnn2-c2ccc(F)cc2)c1 [Example 1, (S)-N-(3-(1-(4-fluorophenyl)-1H-indazol-5-yl)-2,2-dimethyl-3-phenylpropyl)-3,3-dimethylbutanamide] yielded a Ki [1] of 8.3 nM and an EC50 ([2]; Homo sapiens, A549, 7 h) of 1280 nM.

Compound CC(C)CC(c1ccc2c(cnn2-c2ccc(F)cc2)c1)C(C)(C)CNS(=O)(=O)CC(F)(F)F (single isomer, unassigned) [Example 57B, 2,2,2-trifluoro-N-(3-(1-(4-fluorophenyl)-1H-indazol-5-yl)-2,2,5-trimethylhexyl)-ethanesulfonamide] has a Ki [1] of 15 nM and an EC50 ([2]; 7 hours) greater than 10000 nM.

CC(C)(C(O)c1cccs1)C(c1ccccc1)c1ccc2c(cnn2-c2ccc(F)cc2)c1 (stereo not shown) [Example 123, 3-(1-(4-fluorophenyl)-1H-indazol-5-yl)-2,2-dimethyl-3-phenyl-1-(thiophen-2-yl)propan-1-ol] gave a Ki [1] of 71 nM and an EC50 ([2]; Homo sapiens, A549, 7 h) greater than 10000 nM.

Work on CC(C)CC(c1ccc2c(cnn2-c2ccc(F)cc2)c1)C(C)(C)CNC(=O)NCC(F)(F)F (single isomer, unassigned) [Example 58B, 1-(3-(1-(4-fluorophenyl)-1H-indazol-5-yl)-2,2,5-trimethylhexyl)-3-(2,2,2-trifluoroethyl)urea] yielded a Ki [1] of 8.8 nM and an EC50 ([2]; 7 hours) of 106 nM.

In the case of CC(C)(C(c1ccccc1)c1ccc2c(cnn2-c2ccc(F)cc2)c1)C(O)(c1cccs1)C(F)(F)F (stereo not shown) [Example 130, 1,1,1-Trifluoro-4-(1-(4-fluorophenyl)-1H-indazol-5-yl)-3,3-dimethyl-4-phenyl-2-(thiophen-2-yl)butan-2-ol], the Ki [1] is reported as 252 nM and the EC50 ([2]; Homo sapiens, A549, 7 h) is reported as greater than 10000 nM.

O=C(CC(F)(F)F)NCCC(c1ccccc1)c1ccc2c(cnn2-c2ccc(F)cc2)c1 (stereo not shown) [Example 111, 3,3,3-Trifluoro-N-(3-(1-(4-fluorophenyl)-1H-indazol-5-yl)-3-phenylpropyl)propanamide] was tested, and the Ki [1] was 12 nM and the EC50 ([2]; Homo sapiens, A549, 7 h) was 240 nM.

CC(C)n1ncc2cc([C@H](c3ccccc3)C(C)(C)CNS(=O)(=O)CC(F)(F)F)ccc21 [Example 87, (S)—N-(2,2-Dimethyl-3-(1-isopropyl-1H-indazol-5-yl)-3-phenylpropyl)-2,2,2-trifluoroethanesulfonamide] gave a Ki [1] of 33 nM and an EC50 ([2]; Homo sapiens, A549, 7 h) greater than 10000 nM.

CC(C)(CNC(=O)CC(F)(F)F)[C@H](c1ccccc1)c1ccc2c(cnn2-c2ccc(F)cc2)c1 [(R)-17, (R)-3,3,3-trifluoro-N-(3-(1-(4-fluorophenyl)-1H-indazol-5-yl)-2,2-dimethyl-3-phenylpropyl)-propanamide] was tested, and the Ki [1] was 12 nM and the EC50 ([2]; Homo sapiens, A549, 7 h) was 99 nM.

For CC(C)(CNC(=O)CC(F)(F)F)[C@H](c1ccccc1)c1ccc2[nH]ncc2c1 [(R)-82, (R)-N-(3-(1H-indazol-5-yl)-2,2-dimethyl-3-phenylpropyl)-3,3,3-trifluoropropanamide], the Ki [1] was 628 nM and the EC50 ([2]; Homo sapiens, A549, 7 h) was greater than 10000 nM.

CCCS(=O)(=O)NCC(C)(C)[C@@H](c1ccccc1)c1ccc2c(cnn2-c2ccc(F)cc2)c1 [Example 13, (S)-N-(3-(1-(4-fluorophenyl)-1H-indazol-5-yl)-2,2-dimethyl-3-phenylpropyl)propane-1-sulfonamide] was tested, and the Ki [1] was 19 nM and the EC50 ([2]; Homo sapiens, A549, 7 h) was 181 nM.

Compound CC(C)(CNC(=O)C(=O)O)[C@H](c1ccccc1)c1ccc2c(cnn2-c2ccc(F)cc2)c1 [Example 24, (R)-2-(3-(1-(4-fluorophenyl)-1H-indazol-5-yl)-2,2-dimethyl-3-phenylpropylamino)-2-oxoacetic acid] has a Ki [1] of 351 nM and an EC50 ([2]; Homo sapiens, A549, 7 h) greater than 10000 nM.

In the case of CC(C)(CNS(=O)(=O)CC(F)(F)F)C(c1ccccc1)c1ccc2[nH]ncc2c1 (stereo in doubt) [(R)-83, (S)-N-(3-(1H-indazol-5-yl)-2,2-dimethyl-3-phenylpropyl)-2,2,2-trifluoroethanesulfonamide], the Ki [1] is reported as 547 nM and the EC50 ([2]; Homo sapiens, A549, 7 h) is reported as greater than 10000 nM.

Compound CC(C)(CNC(=O)C(F)(F)F)C(c1ccccc1)c1ccc2c(cnn2C2CCCCCC2)c1 (stereo not shown) [Example 114, N-(3-(1-Cycloheptyl-1H-indazol-5-yl)-2,2-dimethyl-3-phenylpropyl)-2,2,2-trifluoroacetamide] has a Ki [1] of 33 nM and an EC50 ([2]; Homo sapiens, A549, 7 h) greater than 10000 nM.

In the case of CC(C)CC(c1ccc2c(cnn2-c2ccc(F)cc2)c1)C(C)(C)CNC(=O)N(C)C (stereo not shown) [Example 65, 3-(3-(1-(4-fluorophenyl)-1H-indazol-5-yl)-2,2,5-trimethylhexyl)-1,1-dimethylurea], the Ki [1] is reported as 1.4 nM.

Compound CC(C)CC(c1ccc2c(cnn2-c2ccc(F)cc2)c1)C(C)(C)CNC(=O)NC(C)(C)CN (stereo not shown) [Example 41, 1-(1-amino-2-methylpropan-2-yl)-3-(3-(1-(4-fluorophenyl)-1H-indazol-5-yl)-2,2,5-trimethylhexyl)urea] has a Ki [3] of 8.1 nM and an EC50 ([2]; Homo sapiens, A549, 7 h) greater than 10000 nM.

CC(CNC(=O)CC(F)(F)F)C(c1ccccc1)c1ccc2c(cnn2-c2ccc(F)cc2)c1 (single isomer, unassigned) [Example 90B, 3,3,3-trifluoro-N-(3-(1-(4-fluorophenyl)-1H-indazol-5-yl)-2-methyl-3-phenylpropyl)propanamide] showed a Ki [3] of 21 nM and an EC50 ([2]; 7 hours) of 176 nM.

CCC(CNS(=O)(=O)CC(F)(F)F)C(c1ccccc1)c1ccc2c(cnn2-c2ccc(F)cc2)c1 (stereo not shown) [Example 98, 2,2,2-Trifluoro-N-(2-((1-(4-fluorophenyl)-1H-indazol-5-yl)(phenyl)methyl)butyl)ethanesulfonamide] gave a Ki [3] of 3.7 nM and an EC50 ([2]; Homo sapiens, A549, 7 h) of 17 nM.

In the case of CC(CNS(C)(=O)=O)C(c1ccccc1)c1ccc2c(cnn2-c2ccc(F)cc2)c1 (stereo not shown) [Example 92, N-(3-(1-(4-fluorophenyl)-1H-indazol-5-yl)-2-methyl-3-phenylpropyl)methanesulfonamide], the Ki [3] is reported as 0.94 nM and the EC50 ([2]; Homo sapiens, A549, 7 h) is reported as 12 nM.

For CC(C)CC(c1ccc2c(cnn2-c2ccc(F)cc2)c1)C(C)(C)CNC(=O)N[C@H](C)C(C)(C)C (stereo partly drawn) [Example 44, 1-((R)-3,3-dimethylbutan-2-yl)-3-(3-(1-(4-fluorophenyl)-1H-indazol-5-yl)-2,2,5-trimethylhexyl)urea], the Ki [3] was 2.7 nM and the EC50 ([2]; Homo sapiens, A549, 7 h) was 54 nM.

CC(C)CC(c1ccc2c(cnn2-c2ccc(F)cc2)c1)C(C)(C)CNC(=O)N[C@H]1CCc2ccccc21 (stereo partly drawn) [Example 71A, 1-((S)-2,3-dihydro-1H-inden-1-yl)-3-(3-(1-(4-fluorophenyl)-1H-indazol-5-yl)-2,2,5-trimethylhexyl)urea] gave a Ki [3] of 5.8 nM and an EC50 ([2]; Homo sapiens, A549, 7 h) of 194 nM.

Compound CC(C)CC(c1ccc2c(cnn2-c2ccc(F)cc2)c1)C(C)(C)CNC(=O)[C@@H](O)C(C)(C)C (single isomer, unassigned) [Example 69 diastB, N-(3-(1-(4-fluorophenyl)-1H-indazol-5-yl)-2,2,5-trimethylhexyl)-2-hydroxy-3,3-dimethylbutanamide] has a Ki [3] of 3.4 nM and an EC50 ([2]; Homo sapiens, A549, 7 h) greater than 10000 nM.
